Patent publication US8067582B2 (Bristol-Myers Squibb Company, priority 2007, dated 2011)
Read-outs that look alike come from different tables or passages of the source.

Biological target: T1, androgen receptor (AR) (Homo sapiens, UniProt P10275)
T1 sequence (P10275 1-920): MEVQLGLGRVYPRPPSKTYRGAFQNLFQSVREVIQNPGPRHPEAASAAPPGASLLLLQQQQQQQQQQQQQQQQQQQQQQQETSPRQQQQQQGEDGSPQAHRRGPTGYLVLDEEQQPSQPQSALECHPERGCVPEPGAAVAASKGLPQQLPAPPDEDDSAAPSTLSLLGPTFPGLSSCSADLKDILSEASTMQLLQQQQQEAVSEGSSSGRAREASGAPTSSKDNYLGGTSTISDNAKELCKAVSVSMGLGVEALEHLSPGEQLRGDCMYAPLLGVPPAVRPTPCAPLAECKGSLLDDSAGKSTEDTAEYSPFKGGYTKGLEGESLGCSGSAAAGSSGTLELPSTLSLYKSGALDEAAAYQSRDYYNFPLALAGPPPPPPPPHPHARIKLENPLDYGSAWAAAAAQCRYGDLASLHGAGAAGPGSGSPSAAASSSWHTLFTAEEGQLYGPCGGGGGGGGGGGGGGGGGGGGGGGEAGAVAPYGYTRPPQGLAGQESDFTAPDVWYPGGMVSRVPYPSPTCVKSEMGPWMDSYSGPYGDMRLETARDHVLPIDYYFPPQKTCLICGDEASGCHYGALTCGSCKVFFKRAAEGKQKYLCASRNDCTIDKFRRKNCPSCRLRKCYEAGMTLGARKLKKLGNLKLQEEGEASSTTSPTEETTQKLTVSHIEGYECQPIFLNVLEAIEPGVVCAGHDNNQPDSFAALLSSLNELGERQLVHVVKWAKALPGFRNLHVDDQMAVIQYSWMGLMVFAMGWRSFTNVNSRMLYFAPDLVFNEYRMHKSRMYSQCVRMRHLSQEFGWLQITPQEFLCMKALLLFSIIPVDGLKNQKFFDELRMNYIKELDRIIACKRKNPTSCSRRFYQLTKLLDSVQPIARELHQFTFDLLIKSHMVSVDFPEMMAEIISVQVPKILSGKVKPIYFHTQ
Experiment: MDA-MB-453 Androgen Receptor Transactivation Assay (PSA-Luc reporter, 3 nM DHT)
Type: cell-based
Details: MDA-MB-453 cells, antagonism in presence of 3 nM DHT, 48 hour incubation
From the text: Compounds can be tested in a cell based transactivation assay used to measure the antagonism of androgen receptor (AR) transcriptional activity. The transactivation assay provides a means of identifying antagonists that inhibit the effects of the native hormone dihydrotestosterone (DHT). […] The pGL3 PSA-Luc reporter plasmid is comprised of the cDNA for the firefly luciferase gene and the upstream promoter sequences containing the androgen response elements (AREs) of the prostate specific antigen (PSA). This plasmid functions as a reporter for the transcription-modulating activity of the AR. In order to detect antagonists, the transactivation assay is conducted in the presence of constant concentration of the natural AR hormone (DHT) to induce a defined reporter signal. Addition of increasing concentrations of the suspected antagonist will decrease the reporter signal (luciferase activity).
MDA-MB-453 and 22 RV1 cells were maintained in DMEM (Cellgro, Cat. #10-014-CM) or RPMI 1640 (Gibco Cat. #11875-085) respectively and supplemented with 10% FBS (Invitrogen/GIBCO Life Science). Cells were bulk transfected in flasks with 1.3 ug/ml pGL3 PSA-Luc plasmid by using the Lipofectamine 2000 Reagent (Invitrogen, Cat. #11668-019) and serum-free Opti-MEM I media (Invitrogen, Cat #31985-070) according to the manufacturer's optimized conditions. Transfection was conducted at 37° C. with 5% CO2 for 16-18 hours. Following transfection, cells are washed, treated with trypsin, counted, and seeded in a 96-well plate at 30,000 cells per well in DMEM containing 10% Charcoal/Dextran Treated Fetal Bovine Serum (Gibco Cat. #11054-020) for MDA-MB-453 cells or RPMI 1640 (Gibco Cat. #110835) containing 10% FBS (Invitrogen/GIBCO Life Science) for 22 RV1 cells.
Following transfection, cells were incubated in the absence (blank) or presence (control) of 3 nM DHT (Sigma, Cat. #A-8380) and in the presence or absence of the standard antiandrogen bicalutamide or test compounds ranging in concentrations from 10^−10 to 10^−5M. Duplicates were used for each sample. The compound dilutions were performed by the Tecan Genesis (Tecan, Triangle Park, N.C.). After a 48 hour incubation, luciferase activity was measured using the Steady-Glo Luciferase Assay System (Promega, Cat. #E2550) according to manufacturer's specifications and luminescence was measured on a Packard TopCount (PerkinElmer). For each luciferase sample reading, the percent control (in absence of compounds) was calculated as: % Control=100×[averagesample−averageblank]/[averagecontrol−averageblank] Data was plotted and the IC50 value was defined as the concentration of compound that inhibited 50% of the luciferase activity for the controls.
Compounds described herein were tested in the AR transactivation assay described immediately above, using MDA-MB-453 cells.

`C[C@@]12O[C@]3(CCO[C@@H]4[C@H]3[C@H]1C(=O)N4c1ccc(C#N)c(C(F)(F)F)c1)C[C@@H]2O` (single isomer, unassigned) [Example 2] showed an IC50 of 11 µM.

`CCNC(=O)[C@]12C(=O)N(c3ccc(C#N)c(C(F)(F)F)c3)[C@@H]3OCC[C@@]4(C[C@H](O)[C@]1(C)O4)[C@@H]32` (single isomer, unassigned) [Example 22] showed an IC50 of over 7.5 µM.

`C[C@]12O[C@@]3(CCO[C@@]4(C)[C@@H]3[C@@H]1C(=O)N4c1ccc(C#N)c(C(F)(F)F)c1)C[C@H]2O` (single isomer, unassigned) [Example 25] was tested, and the IC50 was over 7.5 µM.

For `C[C@@]12O[C@]3(CCO[C@]4(C)[C@H]3[C@H]1C(=O)N4c1ccc(C#N)c(C(F)(F)F)c1)C[C@@H]2O` (single isomer, unassigned) [Example 26], the IC50 was over 7.5 µM.

Work on `N#Cc1ccc(N2C(=O)[C@@H]3[C@@H]4[C@H]2OCC[C@@]42CC[C@@H]3O2)cc1C(F)(F)F` (single isomer, unassigned) [Example 53] yielded an IC50 of 1.2 µM.

`N#Cc1ccc(N2C(=O)[C@@H]3[C@@H]4[C@H]2OCC[C@]42O[C@H]3C[C@H]2O)cc1C(F)(F)F` (single isomer, unassigned) [Example 55] was tested, and the IC50 was 10.8 µM.

In the case of `N#Cc1ccc(N2C(=O)[C@H]3[C@H]4O[C@]5(CCO[C@@H]2[C@@H]35)C[C@@H]4O)cc1C(F)(F)F` (single isomer, unassigned) [Example 57], the IC50 is reported as at least 7.5 µM.

`CC[C@]12C[C@@H](O)[C@@]3(CCO[C@@H]4[C@H]3[C@H]1C(=O)N4c1ccc(C#N)c(C(F)(F)F)c1)O2` (single isomer, unassigned) [Example 59] showed an IC50 of at least 7.5 µM.

`CC[C@@]12O[C@]3(CCO[C@@H]4[C@H]3[C@H]1C(=O)N4c1ccc(C#N)c(C(F)(F)F)c1)C[C@@H]2O` (single isomer, unassigned) [Example 61] gave an IC50 of at least 7.5 µM.

Work on `CC(=O)N[C@@H]1[C@@H](O)[C@]23CCO[C@@H]4[C@H]2[C@@H](C(=O)N4c2ccc(C#N)c(C(F)(F)F)c2)[C@@]1(C)O3` (stereo in doubt) [Example 254, N-((1S,2R,3R,4R,5R,8R,12S)-7-(4-cyano-3-(trifluoromethyl)phenyl)-2-hydroxy-4-methyl-6-oxo-9,13-dioxa-7-azatetracyclo[6.3.1.1^1,4.0^5,12]tridec-3-yl)acetamide] yielded an IC50 of 4.95 µM.

Work on `C[C@@]12O[C@]3(CCO[C@@H]4[C@H]3[C@H]1C(=O)N4c1ccc(C#N)c(C(F)(F)F)c1)C[C@H]2N=[N+]=[N-]` [Example 12, 4-((1S,3R,4R,5R,8R,12S)-3-azido-4-methyl-6-oxo-9,13-dioxa-7-azatetracyclo[6.3.1.1^1,4.0^5,12]tridec-7-yl)-2-(trifluoromethyl)benzonitrile] yielded an IC50 of over 7.5 µM.

`C[C@@]12O[C@]3(CCO[C@@H]4[C@H]3[C@H]1C(=O)N4c1ccc(C#N)c(C(F)(F)F)c1)C[C@H]2N` [Example 13, 4-((1S,3R,4R,5R,8R,12S)-3-amino-4-methyl-6-oxo-9,13-dioxa-7-azatetracyclo[6.3.1.1^1,4.0^5,12]tridec-7-yl)-2-(trifluoromethyl)benzonitrile] was tested, and the IC50 was over 7.5 µM.

For `C[C@@]12C[C@H](O)[C@]3(CCO[C@H]4[C@@H]3[C@@H]1C(=O)N4c1ccc(F)c(Cl)c1)O2` [Example 15, (1R,2S,4R,5S,8S,12R)-7-(3-chloro-4-fluorophenyl)-2-hydroxy-4-methyl-9,13-dioxa-7-azatetracyclo[6.3.1.1^1,4.0^5,12]tridecan-6-one], the IC50 (read-out: IC50) was 10.5 µM.

For `C[C@@]12C[C@H](O)[C@]3(CCO[C@H]4[C@@H]3[C@]1(C(=O)OCc1ccccc1)C(=O)N4c1ccc(C#N)c(C(F)(F)F)c1)O2` [Example 23, Benzyl (1R,2S,4R,5R,8S,12R)-7-(4-cyano-3-(trifluoromethyl)phenyl)-2-hydroxy-4-methyl-6-oxo-9,13-dioxa-7-azatetracyclo[6.3.1.1^1,4.0^5,12]tridecane-5-carboxylate], the IC50 was 1.2 µM.

`C[C@@]12C[C@H](O)[C@]3(CCO[C@H]4[C@@H]3[C@]1(CO)C(=O)N4c1ccc(C#N)c(C(F)(F)F)c1)O2` [Example 24, 4-((1R,2S,4R,5R,8S,12R)-2-hydroxy-5-(hydroxymethyl)-4-methyl-6-oxo-9,13-dioxa-7-azatetracyclo[6.3.1.1^1,4.0^5,12]tridec-7-yl)-2-(trifluoromethyl)benzonitrile] showed an IC50 of 5.45 µM.

For `C[C@@]12C[C@@](C)(O)[C@]3(CCO[C@H]4[C@@H]3[C@@H]1C(=O)N4c1ccc(C#N)c(C(F)(F)F)c1)O2` [Example 37, 4-((1R,2R,4R,5S,8S,12R)-2-hydroxy-2,4-dimethyl-6-oxo-9,13-dioxa-7-azatetracyclo[6.3.1.1^1,4.0^5,12]tridec-7-yl)-2-(trifluoromethyl)benzonitrile], the IC50 was 1.16 µM.

Work on `C[C@@]12C[C@H](O)[C@]3(CO[C@H]4[C@@H]3[C@@H]1C(=O)N4c1ccc(C#N)c(C(F)(F)F)c1)O2` [Example 38, 4-((1S,4S,7S,8R,10S,11R)-10-Hydroxy-8-methyl-6-oxo-3,12-dioxa-5-azatetracyclo[5.3.1.1^1,8.0^4,11]dodec-5-yl)-2-(trifluoromethyl)benzonitrile] yielded an IC50 of 1.09 µM.

With `C[C@@]12C[C@H](N)[C@]3(CCO[C@H]4[C@@H]3[C@@H]1C(=O)N4c1ccc(C#N)c(Cl)c1)O2` [Example 45, 4-((1R,2S,4R,5S,8S,12R)-2-amino-4-methyl-6-oxo-9,13-dioxa-7-azatetracyclo[6.3.1.1^1,4.0^5,12]tridec-7-yl)-2-chlorobenzonitrile] the IC50 was 12.8 µM.

Compound `CNS(=O)(=O)N[C@H]1C[C@@]2(C)O[C@@]13CCO[C@H]1[C@@H]3[C@@H]2C(=O)N1c1ccc(C#N)c(Cl)c1` [Example 47, N-((1R,2S,4R,5S,8S,12R)-7-(3-Chloro-4-cyanophenyl)-4-methyl-6-oxo-9,13-dioxa-7-azatetracyclo[6.3.1.1^1,4.0^5,12]tridec-2-yl)-N′-methylsulfamide] has an IC50 of 1.61 µM.

`C[C@]12CC[C@@]3(CCO[C@@H]4[C@H]3[C@H]1C(=O)N4c1ccc(C#N)c(C(F)(F)F)c1)O2` [Example 51, 4-((1S,4S,5R,8R,12S)-4-methyl-6-oxo-9,13-dioxa-7-azatetracyclo[6.3.1.1^1,4.0^5,12]tridec-7-yl)-2-(trifluoromethyl)benzonitrile] showed an IC50 of 1.81 µM.

For `C[C@@]12C[C@H](O)[C@]3(CCO[C@H]4[C@@H]3[C@@H]1C(=O)N4c1cc(Cl)cc(Cl)c1)O2` [Example 117, (1R,2S,4R,5S,8S,12R)-7-(3,5-dichlorophenyl)-2-hydroxy-4-methyl-9,13-dioxa-7-azatetracyclo[6.3.1.1^1,4.0^5,12]tridecan-6-one], the IC50 (read-out: IC50) was 2.48 µM.

Compound `C[C@]12O[C@@]3(CCO[C@H]4[C@@H]3[C@@H]1C(=O)N4c1ccc(C#N)c(F)c1)C[C@H]2O` [Example 137, 2-Fluoro-4-((1S,3R,4S,5S,8S,12R)-3-hydroxy-4-methyl-6-oxo-9,13-dioxa-7-azatetracyclo[6.3.1.1^1,4.0^5,12]tridec-7-yl)benzonitrile] has an IC50 (read-out: IC50) of 6.24 µM.
